Experimental data as given in US6765004B1, “Indoloazepines as vasopressin receptor antagonists” (priority 1999, dated 2004).

How the values were obtained:
human V-1 receptor = molecular target: T1, human V-1 receptor (Homo sapiens, UniProt P37288); assay: In vitro recombinant vasopressin receptor binding assay (V-1), displacement of 3H-arginine vasopressin; design: unit of the concentration uncertain; settings: at 0.1 (unit uncertain) as printed in cell; cloned human V-1 receptor membranes, HEK-293
T1 construct: expressed in transfected cells; host or cells: HEK-293
T1 sequence (P37288 whole entry): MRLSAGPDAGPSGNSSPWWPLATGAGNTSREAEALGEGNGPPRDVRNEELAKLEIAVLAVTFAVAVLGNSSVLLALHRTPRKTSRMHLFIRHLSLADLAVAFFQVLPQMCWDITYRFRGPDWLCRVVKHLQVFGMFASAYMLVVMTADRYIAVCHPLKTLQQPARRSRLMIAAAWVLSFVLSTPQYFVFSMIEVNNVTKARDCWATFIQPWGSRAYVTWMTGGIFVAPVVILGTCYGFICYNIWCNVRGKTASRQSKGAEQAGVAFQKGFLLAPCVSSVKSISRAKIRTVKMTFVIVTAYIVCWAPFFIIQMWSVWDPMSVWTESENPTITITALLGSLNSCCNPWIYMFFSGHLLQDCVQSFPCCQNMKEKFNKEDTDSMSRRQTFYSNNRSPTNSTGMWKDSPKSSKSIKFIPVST
Method: (§1) In Vitro Recombinant Vasopressin Receptor Binding Assay
(§2) Compounds were assessed for their ability to displace ^3H-arginine vasopressin from the human V-1 or V-2 receptor in HEK-293 cells. […] Into wells of 96-well round bottom polypropylene plates were added buffer, test compound, membrane (containing cloned human V-1 or V-2 receptor), and ^3H-vasopressin. The reaction plates were allowed to sit at rt for 1 h. The samples were filtered through Unifilter GF/C plates presoaked in 0.3 polyethyleneimine). The plates were washed 5 times with cold physiological saline containing 0.05% Tween 20. After drying, the bottom of the filter plates were sealed and 0.025 ml of Microscint-20 was added to each filter. The top of the plate was sealed, and the plate was counted.

[1] = tested on: vasopressin-induced hypertension; assay: Reversal of vasopressin-induced hypertension in rats, intraduodenal single dose; type: in vivo, Male Long Evans rats; settings: ID dose 10 mg/kg, anesthetized rats, maximum percent reversal within 60 min
Method: Reversal of Vasopressin-Induced Hypertension in Rats
The anti-hypertensive activity of compounds was screened in an anesthetized model of vasopressin-induced hypertension. Male Long Evans, normotensive rats of between 350 and 450 g in body weight were anesthetized with pentobarbital (35 mg/kg, ip) and maintained throughout the procedure with an ip infusion of 10 mg/kg/hr. Arginine vasopressin was infused at 30 ng/kg/min, iv, to induce a stable hypertensive state (ca. 50 mmHg increase in mean arterial blood pressure). Compounds of interest were administered in an ascending dose fashion and the maximum decrease in mean arterial blood pressure was recorded. An ED50 was determined from the linear portion of the dose-response relationship for each animal.
This model was modified slightly to assess the bioavailability of compounds of interest. Rather than dosing the animals iv in an ascending dose fashion, a single dose per animal was administered directly into the duodenum. The anti-hypertensive effects were then monitored for 60 min and the maximum percent reversal was calculated.

human V-2 receptor = molecular target: T2, human V-2 receptor (Homo sapiens, UniProt P30518); assay: In vitro recombinant vasopressin receptor binding assay (V-2), displacement of 3H-arginine vasopressin; design: dose or concentration left out as unconfirmed; settings: cloned human V-2 receptor membranes, HEK-293
T2 construct: expressed in transfected cells; host or cells: HEK-293
T2 sequence (P30518 whole entry): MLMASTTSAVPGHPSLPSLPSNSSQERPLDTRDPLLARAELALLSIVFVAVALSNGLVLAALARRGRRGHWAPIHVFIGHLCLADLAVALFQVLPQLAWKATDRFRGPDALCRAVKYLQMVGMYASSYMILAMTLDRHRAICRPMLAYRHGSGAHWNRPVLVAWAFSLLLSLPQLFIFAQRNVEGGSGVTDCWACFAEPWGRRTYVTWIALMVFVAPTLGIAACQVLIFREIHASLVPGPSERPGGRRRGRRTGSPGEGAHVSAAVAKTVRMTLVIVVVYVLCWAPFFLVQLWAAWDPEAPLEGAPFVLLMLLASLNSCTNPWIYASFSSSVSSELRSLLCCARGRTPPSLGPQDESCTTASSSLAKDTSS
Method: as §1, §2

SMILES | V1 Bdg (%) (human V-1 receptor) | BP Reduction (%) [1] [%] | V2 Bdg (%) (human V-2 receptor)
O=C(Nc1ccc(C(=O)N2CCCc3c(S(=O)(=O)O)[nH]c4cccc2c34)c(Cl)c1)c1ccccc1-c1ccccc1 [Compound 19, 6-[4-[[(2-Biphenyl-)carbonyl]amino]2-chlorobenzoyl]-3,4,5,6-tetrahydro-1 H-azepino (4,3,2-cd]indole-2-sulfonic acid] | 4% (0.1 M) | 23 | 
O=C(Nc1ccc(C(=O)N2CCCc3c(S(=O)(=O)O)[nH]c4cccc2c34)cc1)c1ccccc1-c1ccccc1 [Compound 18, 6-[4-[[(2-Biphenyl-)carbonyl]amino]benzoyl]-3,4,5,6-tetrahydro-1H-azepino[4,3,2-cd]indole-2-sulfonic acid] | 0% (0.1 M) | 13 | 
O=C(Nc1ccc(C(=O)N2CCCc3c[nH]c4cccc2c34)cc1)c1ccccc1-c1ccccc1 [Compound 10, 6-[4-[[(2-Biphenyl-)carbonyl]amino]benzoyl]-3,4,5,6-tetrahydro-1H-azepino[4,3,2-cd]indole] |  | 17 | 
O=C(Nc1ccc(C(=O)N2CCCC3C(=O)Nc4cccc2c43)cc1)c1ccccc1-c1ccccc1 (centres unmarked) [Compound 15, 6-[4-[[(2-Biphenyl-)carbonyl]amino]benzoyl]-3,4,5,6-tetrahydro-1H-azepino[4,3,2-cd]-2-indolone] |  | 23 | 
Cc1occc1C(=O)Nc1ccc(C(=O)N2CCCc3c[nH]c4cccc2c34)cc1 [Compound 12, 6-[4-[[(2-Methyl-3-furanyl)carbonyl]amino]benzoyl]-3,4,5,6-tetrahydro-1H-azepino[4,3,2-cd]indole] |  |  | 24% (1.0 M)
CN(C)Cc1[nH]c2cccc3c2c1CCCN3C(=O)c1ccc(NC(=O)c2ccccc2-c2ccccc2)cc1 [Compound 17, 6-[4-[[(2-Biphenyl-)carbonyl]amino]benzoyl]-2-(N, N-dimethylaminomethyl)-3,4,5,6-tetrahydro-1 H-azepino[4,3,2-cd]indole] | 6% (0.1 M) |  | 
